Data: patent publication US10975029B2, “Crystalline eravacycline bis-hydrochloride” (Sandoz AG, priority 2016, dated 2021)
Counter-ions that a name gives are not always drawn.

What was measured:
Type in all cases: physicochemical
[1] = Gravimetric moisture sorption isotherm, 0% to 95% RH, with pictures to detect visual changes (deliquescence); conditions: for relative humidity at which the solid liquefies (deliquescence): measured at 25.0±0.1° C., dihydrochloride
Experimental: Moisture sorption isotherms were recorded with an SPSx-1μ moisture sorption analyzer (proUmid, Ulm). The measurement cycle was started at ambient relative humidity (RH) of 25% and first decreased in 5% steps to 5% RH, in one step to 3% RH in a further step to 0% RH. Then RH was increased from 0% to 95% in 5% steps. The time per step was set to a minimum of 2 hours and a maximum of 6 hours. If an equilibrium condition with a constant mass of +0.01% within 1 hour was reached before the maximum time for all examined samples, the sequential humidity step was applied before the maximum time of 6 hours. If no equilibrium was achieved, the consecutive humidity step was applied after the maximum time of 6 hours. The temperature was 25±0.1° C. At the beginning of the GMS experiment, as well as at the end of each RH-step a picture was taken of each sample in order to detect visual changes in the samples. Pictures were taken with a 2046×2046 pixel CMOS image sensor attached to a 35 mm/F 1.4 lens, which was directly connected to the cover plate of moisture sorption analyzer.

[2] = Comparative Example 1: gravimetric moisture sorption/desorption experiment, 0 to 80% RH; conditions: 25° C.; for hysteresis between the sorption and the desorption curve: 0 to 80% RH; for hysteresis between the sorption and the desorption curve / mass increase during the sorption cycle from 0 to 80% RH: dihydrochloride; for mass increase during the sorption cycle from 0 to 80% RH: sorption cycle 0 to 80% RH, reference weight at 0% RH
Source text: Crystalline eravacycline bis-hydrochloride of the present invention and amorphous eravacycline bis-hydrochloride were both subjected to a gravimetric moisture sorption/desorption experiment using an SPSx-1μ moisture sorption analyzer (ProUmid, Ulm). The measurement cycles were started at ambient relative humidity (RH) of 20% and the RH was first decreased in 5% steps to 5% RH, in one step to 3% RH in a further step to 0% RH. Then RH was increased from 0% to 80% and decreased from 80 to 0% RH in 5% steps. Finally, the relative humidity was increased to ambient relative humidity of 20% in 3 steps of approximately 7% steps. The time per step was set to a minimum of 2 hours and a maximum of 6 hours. If an equilibrium condition with a constant mass of 0.01% within 1 hour was reached before the maximum time for all examined samples the sequential humidity step was applied before the maximum time of 6 hours. If no equilibrium was achieved the consecutive humidity step was applied after the maximum time of 6 hours. The temperature was (25±0.1)° C.

[3] = Comparative Example 2: chemical stability under accelerated stress conditions, HPLC at 254 nm; conditions: dihydrochloride; for Area % (HPLC, 254 nm) after 40° C./75% RH for 19 days / Area % (HPLC, 254 nm) after 40° C./75% RH for 42 days: open stored in glass vials; for Area % (HPLC, 254 nm), initial sample: before stress
Source text: [formula] mT=initial mass of eravacycline bis-hydrochloride tested in mg VT=consumption of volumetric solution for titration of eravacycline bis-hydrochloride in mL F=factor of the volumetric solution 36.46=molecular mass of hydrochloride in g/mol 0.1=molarity of the volumetric solution 100=conversion to % High Performance Liquid Chromatography Instrument: Agilent HP 1100 with Chemstation Column: YMC-Pack Pro C18 RS; 150*4.6 mm; 3 microm Solvent: A: 40 mmol amidosulfonic acid in water • B: 40 mmol amidosulfonic acid in water with 75% acetonitrile Gradient: […]
Injection volume: 5 microL Flow: 0.8 mL/min Oven temperature: 40° C. Wavelength: 254 nm
Crystalline eravacycline bis-hydrochloride of the present invention and amorphous eravacycline bis-hydrochloride were subjected to accelerated stress conditions of 40° C. and 75% relative humidity. The samples were open stored in glass vials and analyzed by high performance liquid chromatography at 254 nm using the method as described in the experimental section above.

[4] = listed as amorphous eravacycline 2HCl
[5] = listed as crystalline eravacycline 2HCl

| SMILES | relative humidity at which the solid liquefies (deliquescence) [1] [%] | hysteresis between the sorption and the desorption curve [2] | water content in the desorption curve at 40% relative humidity ([2]; 40% RH, desorption curve, FIG. 7) [%] | water content in the sorption curve at 40% relative humidity ([2]; 40% RH, sorption curve, FIG. 7) | mass increase during the sorption cycle from 0 to 80% RH [2] | mass increase during the sorption cycle from 0 to 80% RH ([2]; listed as Amorphous eravacycline bis-hydrochloride) | Area % (HPLC, 254 nm) after 40° C./75% RH for 19 days [3, 4] [Area %] | Area % (HPLC, 254 nm) after 40° C./75% RH for 42 days [3, 4] [Area %] | Area % (HPLC, 254 nm), initial sample [3, 4] [Area %] | water content at a relative humidity of 0% ([1]; 0% RH, gravimetric moisture sorption, 25° C.) | water content at a relative humidity of 90% ([1]; 90% RH, gravimetric moisture sorption, 25° C.) | behaviour when subjected to relative humidity of about 0 to 90% ([1]; relative humidity about 0 to 90% at 25.0±0.1° C.) | water content during the sorption and the desorption cycle at 40% relative humidity ([2]; 40% RH, sorption and desorption cycle, FIG. 6) | Area % (HPLC, 254 nm) after 40° C./75% RH for 19 days [3, 5] [Area %] | Area % (HPLC, 254 nm) after 40° C./75% RH for 42 days [3, 5] [Area %] | Area % (HPLC, 254 nm), initial sample [3, 5] [Area %] |
| --- | --- | --- | --- | --- | --- | --- | --- | --- | --- | --- | --- | --- | --- | --- | --- | --- |
| CN(C)[C@@H]1C(O)=C(C(N)=O)C(=O)[C@@]2(O)C(O)=C3C(=O)c4c(O)c(NC(=O)CN5CCCC5)cc(F)c4C[C@H]3C[C@@H]12 [amorphous eravacycline bis-hydrochloride, (4S,4aS,5aR,12aS)-4-(Dimethylamino)-7-fluoro-3,10,12,12a-tetrahydroxy-1,11-dioxo-9-[2(-pyrrolidin-1-yl)acetamido]-1,4,4a,5,5a,6,11,12a-octahydrotetracene-2-carboxamide dihydrochloride] | 85 | significant hysteresis | 14.3 | about 8.9 weight % | about 26.1 weight % | about 26.1 weight % | 31.9 | 30.3 | 97.2 | – | – | – | – | – | – | – |
| CN(C)[C@@H]1C(O)=C(C(N)=O)C(=O)[C@@]2(O)C(O)=C3C(=O)c4c(O)c(NC(=O)CN5CCCC5)cc(F)c4C[C@H]3C[C@@H]12 [crystalline eravacycline bis-hydrochloride] [(4S,4aS,5aR,12aS)-4-(Dimethylamino)-7-fluoro-3,10,12,12a-tetrahydroxy-1,11-dioxo-9-[2(-pyrrolidin-1-yl)acetamido]-1,4,4a,5,5a,6,11,12a-octahydrotetracene-2-carboxamide dihydrochloride] | 95 | no significant hysteresis | – | – | – | – | – | – | – | about 0 weight % | about 20.1% | does not liquefy | about 13 weight % | 77.1 | 73.8 | 95.8 |
